pIC50: −log10 of the molar value. Values after ≈ are worked out from the molar mass of the structure shown.
Columns and labels:
[1] = system: HGC-27; assay: Antitumor activity against human HGC27 cells xenografted in BALB/c nude mouse assessed as tumor growth inhibition at 10 mg/kg, po administered once daily for 15 days measured at post last dose relative to control; assay type: functional; conditions: HGC-27, po, 360 h, read-out: TGI
[2] = molecular target: Phosphatidylinositol 4,5-bisphosphate 3-kinase catalytic subunit gamma isoform (Homo sapiens, UniProt P48736); assay: Inhibition of PI3Kgamma (unknown origin) using PIP2 as substrate by ADP-Glo assay
Chain of Phosphatidylinositol 4,5-bisphosphate 3-kinase catalytic subunit gamma isoform (P48736 whole entry, canonical isoform): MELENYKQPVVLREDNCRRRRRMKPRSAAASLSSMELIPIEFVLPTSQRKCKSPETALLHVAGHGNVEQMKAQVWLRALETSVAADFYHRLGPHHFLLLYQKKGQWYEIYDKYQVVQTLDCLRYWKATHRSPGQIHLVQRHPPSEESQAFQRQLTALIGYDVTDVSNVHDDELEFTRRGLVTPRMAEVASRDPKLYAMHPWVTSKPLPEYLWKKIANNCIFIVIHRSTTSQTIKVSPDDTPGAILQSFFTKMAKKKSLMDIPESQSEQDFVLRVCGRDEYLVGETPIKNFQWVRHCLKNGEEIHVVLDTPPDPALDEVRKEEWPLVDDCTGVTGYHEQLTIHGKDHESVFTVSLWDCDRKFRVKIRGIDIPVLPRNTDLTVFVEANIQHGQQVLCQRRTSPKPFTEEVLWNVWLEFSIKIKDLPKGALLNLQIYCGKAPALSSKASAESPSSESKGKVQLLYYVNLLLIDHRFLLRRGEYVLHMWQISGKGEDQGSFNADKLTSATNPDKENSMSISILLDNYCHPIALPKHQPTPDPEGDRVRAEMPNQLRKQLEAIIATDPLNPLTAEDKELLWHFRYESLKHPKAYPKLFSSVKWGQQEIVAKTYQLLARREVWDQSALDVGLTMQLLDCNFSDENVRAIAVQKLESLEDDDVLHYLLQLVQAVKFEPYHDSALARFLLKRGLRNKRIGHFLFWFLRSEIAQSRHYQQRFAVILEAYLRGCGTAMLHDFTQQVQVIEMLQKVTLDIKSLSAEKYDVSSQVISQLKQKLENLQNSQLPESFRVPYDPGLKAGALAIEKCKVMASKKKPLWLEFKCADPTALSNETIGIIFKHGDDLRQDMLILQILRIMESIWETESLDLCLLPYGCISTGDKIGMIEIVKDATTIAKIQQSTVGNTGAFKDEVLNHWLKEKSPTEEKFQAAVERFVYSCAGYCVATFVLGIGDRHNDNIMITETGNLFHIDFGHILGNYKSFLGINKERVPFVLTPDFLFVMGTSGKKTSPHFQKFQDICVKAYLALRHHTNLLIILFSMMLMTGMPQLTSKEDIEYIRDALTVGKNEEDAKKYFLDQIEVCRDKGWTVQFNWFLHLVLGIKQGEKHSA

[3] = system: U-87 MG; assay: Antitumor activity against Luc tagged human U87MG cells xenografted in BALB/c nude mouse glioblastoma orthotopic model assessed as tumor growth inhibition at 5 mg/kg, po qd by MRI method relative to control; assay type: functional, U-87MG ATCC; conditions: read-out: TGI
[4] = system: T98G; assay: cells; assay type: functional, cell-based; conditions: Homo sapiens, 96 h
Description: Cytotoxicity against human T98G cells after 96 hrs by MTT assay

[5] = system: Mus musculus; assay: Toxicity in human HGC27 cells xenografted BALB/c nude mouse assessed as reduction in body weight at 10 mg/kg, po administered once daily for 15 days measured at post last dose; assay type: organism-based; conditions: in vivo, 360 h
[6] = molecular target: T1, Cytochrome P450 1A2 (Homo sapiens, UniProt P05177)
T1 sequence (P05177 whole entry): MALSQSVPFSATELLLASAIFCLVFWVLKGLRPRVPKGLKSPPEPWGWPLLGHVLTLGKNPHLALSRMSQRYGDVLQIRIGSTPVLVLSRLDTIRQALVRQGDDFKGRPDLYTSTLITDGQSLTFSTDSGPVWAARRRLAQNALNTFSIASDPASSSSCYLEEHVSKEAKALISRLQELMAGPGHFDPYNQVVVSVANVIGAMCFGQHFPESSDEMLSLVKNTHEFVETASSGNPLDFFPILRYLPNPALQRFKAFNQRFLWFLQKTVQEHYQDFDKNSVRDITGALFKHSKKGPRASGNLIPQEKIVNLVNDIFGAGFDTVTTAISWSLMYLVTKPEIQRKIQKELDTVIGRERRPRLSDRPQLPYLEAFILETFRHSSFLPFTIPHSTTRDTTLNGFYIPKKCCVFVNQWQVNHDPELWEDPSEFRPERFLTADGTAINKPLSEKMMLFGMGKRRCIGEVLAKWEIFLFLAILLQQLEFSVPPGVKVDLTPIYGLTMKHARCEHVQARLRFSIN
Description: Inhibition of CYP1A2 in human liver microsomes assessed as reduction in acetaminophen formation using phenacetin as substrate after 10 to 20 mins in presence of NADPH by LC-MS/MS analysis

[7] = in vivo; conditions: ICR, mouse, brain, po, 30 mg/kg
[8] = molecular target: Voltage-gated inwardly rectifying potassium channel KCNH2 (Homo sapiens, UniProt Q12809)
Chain of Voltage-gated inwardly rectifying potassium channel KCNH2 (Q12809 whole entry): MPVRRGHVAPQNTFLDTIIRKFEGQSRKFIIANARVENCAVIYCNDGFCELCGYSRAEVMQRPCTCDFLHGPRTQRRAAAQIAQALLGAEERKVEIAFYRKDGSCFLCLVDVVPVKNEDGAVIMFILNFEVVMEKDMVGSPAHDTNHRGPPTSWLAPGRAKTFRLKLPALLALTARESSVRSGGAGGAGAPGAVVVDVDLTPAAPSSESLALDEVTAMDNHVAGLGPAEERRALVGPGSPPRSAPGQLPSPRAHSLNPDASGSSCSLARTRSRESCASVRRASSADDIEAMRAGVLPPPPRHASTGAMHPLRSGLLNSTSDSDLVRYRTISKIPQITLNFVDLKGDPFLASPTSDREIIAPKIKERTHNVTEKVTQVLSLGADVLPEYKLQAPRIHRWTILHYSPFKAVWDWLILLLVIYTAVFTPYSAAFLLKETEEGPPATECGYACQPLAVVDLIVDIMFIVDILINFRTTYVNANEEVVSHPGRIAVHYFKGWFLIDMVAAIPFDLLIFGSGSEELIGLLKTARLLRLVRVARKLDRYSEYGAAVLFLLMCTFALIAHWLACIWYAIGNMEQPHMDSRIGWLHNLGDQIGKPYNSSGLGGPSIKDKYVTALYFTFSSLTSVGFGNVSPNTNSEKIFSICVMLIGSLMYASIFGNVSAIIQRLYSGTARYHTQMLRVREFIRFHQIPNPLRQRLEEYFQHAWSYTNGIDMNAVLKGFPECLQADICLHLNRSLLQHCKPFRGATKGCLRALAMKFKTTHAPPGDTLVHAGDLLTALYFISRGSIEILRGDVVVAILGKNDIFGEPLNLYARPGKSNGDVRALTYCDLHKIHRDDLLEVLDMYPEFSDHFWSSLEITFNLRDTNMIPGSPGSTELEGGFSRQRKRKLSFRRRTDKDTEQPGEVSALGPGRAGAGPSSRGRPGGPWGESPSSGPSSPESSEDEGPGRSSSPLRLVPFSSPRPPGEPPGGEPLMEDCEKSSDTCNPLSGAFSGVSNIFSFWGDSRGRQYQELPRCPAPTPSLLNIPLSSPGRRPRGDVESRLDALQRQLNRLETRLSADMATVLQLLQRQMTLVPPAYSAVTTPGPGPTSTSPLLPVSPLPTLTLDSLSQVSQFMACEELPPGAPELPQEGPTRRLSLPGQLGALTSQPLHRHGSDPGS
Description: Inhibition of human ERG expressed in CHO cell membranes by patch clamp method

[9] = system: NCI-H460; conditions: Homo sapiens;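 for pIC50: cytotoxicity determined with an MTT assay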
Description: Antitumor activity against human NCI-H460 cells xenografted in po dosed BALB/c nude mouse assessed as tumor growth inhibition administered once daily after 16 days

[10] = system: NCI-H460; assay: Antitumor activity against human NCI-H460 cells xenografted in BALB/c nude mouse assessed as tumor growth inhibition at 20 mg/kg, po administered once daily after 16 days relative to control; assay type: functional; conditions: 384 h, read-out: TGI
[11] = system: MGC-803; assay: Antitumor activity against human MGC803 cells xenografted in BALB/c nude mouse assessed as tumor growth inhibition at 10 mg/kg, po administered once daily for 18 days measured at post last dose relative to control; assay type: functional; conditions: MGC-803, po, 432 h, read-out: TGI
[12] = system: NCI-H460; assay: cells; assay type: functional, cell-based; conditions: Homo sapiens, NCI-H460, 96 h
Description: Cytotoxicity against human NCI-H460 cells after 96 hrs by MTT assay

[13] = system: NCI-H460; assay: Antitumor activity against human NCI-H460 cells xenografted in BALB/c nude mouse assessed as tumor growth inhibition at 10 mg/kg, po administered once daily after 16 days relative to control; assay type: functional; conditions: 384 h, read-out: TGI
[14] = system: MGC-803; conditions: Homo sapiens
Description: Antitumor activity against human MGC803 cells xenografted in po dosed BALB/c nude mouse assessed as tumor growth inhibition administered once daily measured at post last dose

[15] = system: Mus musculus; assay: Toxicity in human NCI-H460 cells xenografted BALB/c nude mouse assessed as reduction in body weight at 5 to 20 mg/kg, po administered once daily after 16 days; assay type: organism-based; conditions: in vivo, 384 h
[16] = system: MGC-803; assay: Antitumor activity against human MGC803 cells xenografted in BALB/c nude mouse assessed as tumor growth inhibition at 5 mg/kg, po administered once daily for 18 days measured at post last dose relative to control; assay type: functional; conditions: MGC-803, po, 432 h, read-out: TGI
[17] = system: MGC-803; assay: Antitumor activity against human MGC803 cells xenografted in BALB/c nude mouse assessed as tumor growth inhibition at 20 mg/kg, po administered once daily for 18 days measured at post last dose relative to control; assay type: functional; conditions: MGC-803, po, 432 h, read-out: TGI
[18] = system: HGC-27; assay: Antitumor activity against human HGC27 cells xenografted in BALB/c nude mouse assessed as tumor growth inhibition at 5 mg/kg, po administered once daily for 15 days measured at post last dose relative to control; assay type: functional; conditions: HGC-27, po, 360 h, read-out: TGI
[19] = system: NCI-H460; assay: Antitumor activity against human NCI-H460 cells xenografted in BALB/c nude mouse assessed as tumor growth inhibition at 5 mg/kg, po administered once daily after 16 days relative to control; assay type: functional; conditions: 384 h, read-out: TGI
[20] = system: Mus musculus; assay: Toxicity in human MGC803 cells xenografted BALB/c nude mouse assessed as reduction in body weight at 5 to 20 mg/kg, po administered daily for 18 days measured at post last dose; assay type: organism-based; conditions: in vivo, 432 h
[21] = system: Salmonella typhimurium; assay: Mutagenicity in Salmonella typhimurium TA1535 up at 50 ug/plate after 72 hrs in presence of S9 fraction by Ames test; assay type: toxicity, organism-based; conditions: salmonella enterica subsp. enterica serovar typhimurium, s9, 72 h
[22] = system: Salmonella typhimurium; assay: Mutagenicity in Salmonella typhimurium TA1535 at 500 ug/plate after 72 hrs by Ames test; assay type: toxicity, organism-based; conditions: salmonella enterica subsp. enterica serovar typhimurium
[23] = in vitro; conditions: ICR, mouse, plasma
Description: Protein binding in ICR mouse plasma at 2 uM after 6 hrs by LC-MS/MS analysis

[24] = mouse, in vivo, po, 10 mg/kg, 24 h
[25] = system: HGC-27; assay: Antitumor activity against human HGC27 cells xenografted in BALB/c nude mouse assessed as tumor growth inhibition at […], po administered once daily for 15 days measured at post last dose relative to control; assay type: functional; conditions: HGC-27, po, 360 h, read-out: TGI
[26] = in vitro; conditions: human, plasma
Description: Protein binding in human plasma at 2 uM after 6 hrs by LC-MS/MS analysis

[27] = system: NCI-H460; assay: Antitumor activity against human NCI-H460 cells xenografted in po dosed athymic BALB/c nude mouse administered as single dose via gavage after 2 to 24 hrs; assay type: functional, organism-based
[28] = system: Salmonella typhimurium; assay: Mutagenicity in Salmonella typhimurium TA97 at 500 ug/plate after 72 hrs by Ames test; assay type: toxicity, organism-based; conditions: salmonella enterica subsp. enterica serovar typhimurium
[29] = system: Salmonella typhimurium; assay: Mutagenicity in Salmonella typhimurium TA100 at 500 ug/plate after 72 hrs by Ames test; assay type: toxicity, organism-based; conditions: salmonella enterica subsp. enterica serovar typhimurium
[30] = system: Mus musculus; assay: In vivo inhibition of PI3Kalpha in po dosed athymic BALB/c nude mouse xenografted with human NCI-H460 cells administered as single dose via gavage after 2 to 24 hrs; assay type: functional, organism-based
[31] = in vivo; conditions: athymic BALB/c nude, mouse, plasma, po, 10 mg/kg
[32] = system: Mus musculus; assay: Toxicity in human HGC27 cells xenografted in BALB/c nude mouse assessed as reduction in body weight at […], po administered once daily for 15 days measured at post last dose; assay type: organism-based; conditions: in vivo, 360 h
[33] = system: Salmonella typhimurium; assay: Mutagenicity in Salmonella typhimurium TA98 at 500 ug/plate after 72 hrs by Ames test; assay type: toxicity, organism-based; conditions: salmonella enterica subsp. enterica serovar typhimurium

CNc1nc(C)c2cc(-c3cnc(OC)c(NS(=O)(=O)c4ccc(F)cc4F)c3)cc(O[C@@H]3CCOC3)c2n1
inhibition in vivo at 10 mg/kg [1]: 94.6% | pIC50 [2]: 9.03 | inhibition in vivo at 5 mg/kg [3]: 89.4% | pIC50 [4]: 6.39 | Activity [5]: Toxic | pIC50 [6]: < 5.00 | Cmax [7]: 433 ng/g | pIC50 [8]: < 5.00

COc1ncc(-c2cc(O[C@@H]3CCOC3)c3nc(N)nc(C)c3c2)cc1NS(=O)(=O)c1ccc(F)cc1F
TGI [9]: Dose-dependent effect | inhibition in vivo at 10 mg/kg [1]: 74.7% | pIC50 [2]: 8.92 | inhibition in vivo at 20 mg/kg [10]: 75.9% | inhibition in vivo at 10 mg/kg [11]: 69.3% | pIC50 [12]: 7.03 | inhibition in vivo at 10 mg/kg [13]: 83.1% | pIC50 [4]: 6.55 | TGI [14]: Dose-dependent effect | pIC50 [6]: < 5.00 | Activity [15]: Toxic | inhibition in vivo at 5 mg/kg [16]: 55.1% | inhibition in vivo at 20 mg/kg [17]: 77.8% | inhibition in vivo at 5 mg/kg [18]: 36.1% | inhibition in vivo at 5 mg/kg [19]: 41.9% | Activity [20]: Toxic | pIC50 [8]: < 5.00

CNc1nc(C)c2cc(-c3cnc(OC)c(NS(=O)(=O)c4ccc(F)cc4F)c3)cc(OC3CCOCC3)c2n1
Activity [21]: Toxic | Activity [22]: Toxic | fraction unbound at 6 h, 2 µM [23]: 0.0842 | AUC [24]: 5576 ng·h/g | inhibition in vivo at […] [25]: 94.1% | pIC50 [2]: 8.77 | fraction unbound at 6 h, 2 µM [26]: 0.0454 | inhibition in vivo at 5 mg/kg [3]: 96% | pIC50 [12]: 7.23 | pIC50 [4]: 6.41 | IC50 [27]: 34 ng/mL (≈ 59.5 nM) | pIC50 [6]: < 5.00 | Activity [28]: Toxic | Activity [29]: Toxic | IC90 [30]: 4 ng/mL (≈ 7 nM) | IC50 ([30]; Mus musculus, BALB/c, NCI-H460): 0.8 ng/mL (≈ 1.4 nM) | AUC(0-t) at 24 h [31]: 5460 ng·h/mL | Activity [32]: Toxic | Cmax [7]: 723 ng/g | Activity [33]: Toxic | pIC50 [8]: < 5.00
